Measurements published in PubChem BioAssay AID248 (DTP/NCI, 2004).
Values joined by “and” are separate entries in the source; they are usually repeats but may differ in a detail not shown here. Identical values can stand only once. Inconclusive results and toxic doses are left out. Rule as the data show it: active = T/C of 150% or more; inactive = T/C below 125%.

Test system: L1210 leukemia ip in BDF1 mice, survival T/C
Assay: NCI In Vivo Anticancer Drug Screen. Data for tumor model L1210 Leukemia (intraperitoneal) in B6D2F1 (BDF1) mice
Settings: endpoint: mean survival time, higher = longer survival
In short: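 Mice bearing the transplanted tumor received compound or vehicle. Survival of the treated group was divided by that of the vehicle-treated control group to give the ratio.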

[1] = dose: 100.0 mg/kg/injection, schedule: Q01DX001 (ip), vehicle: saline
[2] = dose: 200.0 mg/kg/injection, schedule: Q01DX001 (ip), vehicle: saline
[3] = dose: 400.0 mg/kg/injection, schedule: Q01DX001 (ip), vehicle: saline
[4] = dose: 50.0 mg/kg/injection, schedule: Q04DX003 (ip), vehicle: saline
[5] = dose: 100.0 mg/kg/injection, schedule: Q01DX009 (ip), vehicle: saline
[6] = dose: 50.0 mg/kg/injection, schedule: Q01DX001 (ip), vehicle: saline
[7] = dose: 12.5 mg/kg/injection, schedule: Q01DX009 (ip), vehicle: saline with Tween-80
[8] = dose: 25.0 mg/kg/injection, schedule: Q01DX009 (ip), vehicle: saline with Tween-80
[9] = dose: 100.0 mg/kg/injection, schedule: Q01DX001 (ip), vehicle: carboxymethylcellulose (CMC)
[10] = dose: 100.0 mg/kg/injection, schedule: Q04DX003 (ip), vehicle: saline
[11] = dose: 200.0 mg/kg/injection, schedule: Q01DX001 (ip), vehicle: carboxymethylcellulose (CMC)
[12] = dose: 200.0 mg/kg/injection, schedule: Q04DX003 (ip), vehicle: saline
[13] = dose: 400.0 mg/kg/injection, schedule: Q01DX001 (ip), vehicle: carboxymethylcellulose (CMC)
[14] = dose: 400.0 mg/kg/injection, schedule: Q04DX003 (ip), vehicle: saline
[15] = dose: 100.0 mg/kg/injection, schedule: Q01DX001 (ip), vehicle: Klucel (hydroxypropylcellulose) (HPC)
[16] = dose: 200.0 mg/kg/injection, schedule: Q01DX001 (ip), vehicle: Klucel (hydroxypropylcellulose) (HPC)
[17] = dose: 400.0 mg/kg/injection, schedule: Q01DX001 (ip), vehicle: Klucel (hydroxypropylcellulose) (HPC)
[18] = dose: 100.0 mg/kg/injection, schedule: Q04DX002 (ip), vehicle: saline with Tween-80
[19] = dose: 200.0 mg/kg/injection, schedule: Q04DX002 (ip), vehicle: saline with Tween-80
[20] = dose: 400.0 mg/kg/injection, schedule: Q04DX002 (ip), vehicle: saline with Tween-80

Measured: T/C

CC(C)(C)CC(C)(C)O
inactive: [1] 102 % of control | [2] 102 % of control | [3] 96 % of control

CC(C)=CCC(O)(c1ccccc1)C(C)CN(C)C (configuration not stated)
inactive: dose: 12.5 mg/kg/injection, schedule: Q01DX009 (ip), vehicle: saline 94 % of control | dose: 12.5 mg/kg/injection, schedule: Q04DX003 (ip), vehicle: saline 94 % of control | dose: 25.0 mg/kg/injection, schedule: Q01DX009 (ip), vehicle: saline 106 % of control and 103 % of control | dose: 25.0 mg/kg/injection, schedule: Q04DX003 (ip), vehicle: saline 94 % of control | dose: 50.0 mg/kg/injection, schedule: Q01DX009 (ip), vehicle: Klucel (hydroxypropylcellulose) (HPC) 100 % of control | dose: 50.0 mg/kg/injection, schedule: Q01DX009 (ip), vehicle: saline 101 % of control and 96 % of control | [4] 118 % of control | dose: 100.0 mg/kg/injection, schedule: Q01DX009 (ip), vehicle: Klucel (hydroxypropylcellulose) (HPC) 97 % of control | [5] 98 % of control | dose: 200.0 mg/kg/injection, schedule: Q01DX009 (ip), vehicle: Klucel (hydroxypropylcellulose) (HPC) 95 % of control

CCOCCOCCCNCc1cnc2nc(N)nc(N)c2n1
inactive: dose: 10.0 mg/kg/injection, schedule: Q01DX009 (ip), vehicle: saline 97 % of control | dose: 20.0 mg/kg/injection, schedule: Q01DX009 (ip), vehicle: saline 103 % of control | dose: 40.0 mg/kg/injection, schedule: Q01DX009 (ip), vehicle: saline 103 % of control

C[N+](C)(C)c1cc2c(nn1)Nc1ccccc1S2
inactive: [6] 123 % of control | [1] 116 % of control

CN(CCSSCCN(C)C(N)=S)C(N)=S
inactive: dose: 75.0 mg/kg/injection, schedule: Q04DX003 (ip), vehicle: saline 96 % of control | dose: 150.0 mg/kg/injection, schedule: Q04DX003 (ip), vehicle: saline 87 % of control | dose: 300.0 mg/kg/injection, schedule: Q04DX003 (ip), vehicle: saline 96 % of control

CC(=O)c1ccc(NC(=O)c2ccc(C(=O)Nc3ccc(C(C)=O)cc3)cc2)cc1
inactive: [1] 100 % of control | [2] 96 % of control | [3] 102 % of control

CCOC(=O)NCC(CCCCN(C)C)(c1cccc2ccccc12)C(C)CC (configuration not stated)
inactive: [7] 96 % of control | [8] 97 % of control | dose: 50.0 mg/kg/injection, schedule: Q01DX009 (ip), vehicle: saline with Tween-80 100 % of control

COC(=O)c1ccccc1N1C(=O)C=CC1=O
inactive: dose: 6.25 mg/kg/injection, schedule: Q01DX009 (ip), vehicle: saline with Tween-80 97 % of control | [7] 98 % of control | [8] 103 % of control

CC(=O)Nc1ccc2c(c1)Cc1cc(NC=O)ccc1-2
inactive: dose: 50.0 mg/kg/injection, schedule: Q01DX001 (ip), vehicle: carboxymethylcellulose (CMC) 101 % of control | [9] 95 % of control | dose: 100.0 mg/kg/injection, schedule: Q01DX009 (ip), vehicle: saline with Tween-80 102 % of control | [10] 97 % of control | [11] 101 % of control | dose: 200.0 mg/kg/injection, schedule: Q01DX009 (ip), vehicle: saline with Tween-80 95 % of control | [12] 93 % of control | [13] 101 % of control | dose: 400.0 mg/kg/injection, schedule: Q01DX009 (ip), vehicle: saline with Tween-80 98 % of control | [14] 95 % of control

O=c1[nH]c2cc(Cl)cc(Cl)c2c2ccc(Cl)cc12
inactive: [9] 100 % of control | [11] 96 % of control | [13] 89 % of control

CC1(C)N=C(N)N=C(N)N1c1ccc(CC(C(=O)Nc2cccc(S(=O)(=O)F)c2)c2ccccc2)cc1 (configuration not stated)
inactive: dose: 25.0 mg/kg/injection, schedule: Q01DX001 (ip), vehicle: saline 105 % of control | [6] 106 % of control | dose: 87.5 mg/kg/injection, schedule: Q01DX001 (ip), vehicle: saline 94 % of control | [1] 97 % of control

O=C1c2ccccc2CC(Br)c2ccccc21 (configuration not stated)
inactive: [15] 95 % of control | [16] 100 % of control | [17] 100 % of control

CC(S(C)(=O)=O)(S(C)(=O)=O)S(C)(=O)=O
inactive: dose: 75.0 mg/kg/injection, schedule: Q01DX001 (ip), vehicle: saline with Tween-80 96 % of control | dose: 150.0 mg/kg/injection, schedule: Q01DX001 (ip), vehicle: saline with Tween-80 96 % of control | dose: 300.0 mg/kg/injection, schedule: Q01DX001 (ip), vehicle: saline with Tween-80 107 % of control

CCn1c(=S)[nH]c2ccccc2c1=O
inactive: [18] 98 % of control | [19] 109 % of control | [20] 102 % of control

CCCCOC(=O)C1OC1(CC)c1ccccc1 (configuration not stated)
inactive: [18] 88 % of control | [19] 97 % of control | [20] 100 % of control

C[C@]12CC[C@@H]3c4ccc(O)cc4CC[C@H]3[C@@H]1C[C@@H](O)[C@@H]2O
inactive: dose: 25.0 mg/kg/injection, schedule: Q01DX001 (sc), vehicle: steriod suspending solution 104 % of control | dose: 50.0 mg/kg/injection, schedule: Q01DX001 (sc), vehicle: steriod suspending solution 107 % of control | dose: 100.0 mg/kg/injection, schedule: Q01DX001 (sc), vehicle: steriod suspending solution 109 % of control | dose: 125.0 mg/kg/injection, schedule: Q04DX003 (sc), vehicle: steriod suspending solution 100 % of control | dose: 200.0 mg/kg/injection, schedule: Q01DX001 (sc), vehicle: steriod suspending solution 106 % of control | dose: 250.0 mg/kg/injection, schedule: Q04DX003 (sc), vehicle: steriod suspending solution 105 % of control | dose: 500.0 mg/kg/injection, schedule: Q04DX003 (sc), vehicle: steriod suspending solution 100 % of control

CC1CC=C(C2CC(C)CC(N(C)C)C2=N)CC1 (configuration not stated)
inactive: dose: 100.0 mg/kg/injection, schedule: Q01DX009 (sc), vehicle: olive oil, sesame oil, peanut oil 101 % of control | dose: 100.0 mg/kg/injection, schedule: Q04DX003 (sc), vehicle: olive oil, sesame oil, peanut oil 108 % of control | dose: 200.0 mg/kg/injection, schedule: Q01DX009 (sc), vehicle: olive oil, sesame oil, peanut oil 92 % of control | dose: 200.0 mg/kg/injection, schedule: Q04DX003 (sc), vehicle: olive oil, sesame oil, peanut oil 103 % of control | dose: 400.0 mg/kg/injection, schedule: Q04DX003 (sc), vehicle: olive oil, sesame oil, peanut oil 106 % of control

CC1CN(Cc2ccccc2)CC(C)N1 (configuration not stated)
inactive: dose: 25.0 mg/kg/injection, schedule: Q01DX009 (ip), vehicle: water 95 % of control | dose: 50.0 mg/kg/injection, schedule: Q01DX009 (ip), vehicle: water 95 % of control | dose: 100.0 mg/kg/injection, schedule: Q01DX009 (ip), vehicle: water 104 % of control | dose: 100.0 mg/kg/injection, schedule: Q04DX003 (ip), vehicle: water 110 % of control | dose: 200.0 mg/kg/injection, schedule: Q04DX003 (ip), vehicle: water 115 % of control

CCCCCc1c(CCC)[nH]c(=O)[nH]c1=O
inactive: [15] 105 % of control | [16] 106 % of control | [17] 90 % of control

CCOC(=O)C(N)Cc1cc(I)c(O)c(I)c1 (configuration not stated)
inactive: dose: 100.0 mg/kg/injection, schedule: Q04DX003 (ip), vehicle: saline with Tween-80 95 % of control | dose: 200.0 mg/kg/injection, schedule: Q04DX003 (ip), vehicle: saline with Tween-80 97 % of control | dose: 400.0 mg/kg/injection, schedule: Q04DX003 (ip), vehicle: saline with Tween-80 101 % of control

COc1cc(C)c(CN(C)C)c(OC)c1
inactive: dose: 27.0 mg/kg/injection, schedule: Q01DX Z (ip), vehicle: methylcellulose (MC) 102 % of control

NC1CC[N-]CC1.NC1CC[N-]CC1.[Cl][Pt+2][Cl]
inactive: [4] 108 % of control | [5] 94 % of control | [10] 102 % of control | dose: 200.0 mg/kg/injection, schedule: Q01DX009 (ip), vehicle: saline 100 % of control | [12] 108 % of control | [14] 100 % of control

C=C1C2CCC3(C)C(c4ccoc4)OC(=O)CC13OC1CC(=O)C(C)(C)C(CC(=O)OC)C12C (configuration not stated)
inactive: [1] 97 % of control | [2] 96 % of control | [3] 114 % of control
